Tests used:
RAD52-ssDNA interaction [1] = molecular target: T1, RAD52-ssDNA interaction (Homo sapiens, UniProt P43351); assay: FRET-based inhibition of the RAD52-ssDNA interaction; assay type: binding; conditions: for selectivity towards RAD52 over RPA: in vitro FRET-based assays; for IC50: 6 nM RAD52, 1 nM Cy3-dT30-Cy5 ssDNA, 25° C., value ± fitting error
T1 construct: 6xHis; made in house
T1 sequence (P43351 1-418): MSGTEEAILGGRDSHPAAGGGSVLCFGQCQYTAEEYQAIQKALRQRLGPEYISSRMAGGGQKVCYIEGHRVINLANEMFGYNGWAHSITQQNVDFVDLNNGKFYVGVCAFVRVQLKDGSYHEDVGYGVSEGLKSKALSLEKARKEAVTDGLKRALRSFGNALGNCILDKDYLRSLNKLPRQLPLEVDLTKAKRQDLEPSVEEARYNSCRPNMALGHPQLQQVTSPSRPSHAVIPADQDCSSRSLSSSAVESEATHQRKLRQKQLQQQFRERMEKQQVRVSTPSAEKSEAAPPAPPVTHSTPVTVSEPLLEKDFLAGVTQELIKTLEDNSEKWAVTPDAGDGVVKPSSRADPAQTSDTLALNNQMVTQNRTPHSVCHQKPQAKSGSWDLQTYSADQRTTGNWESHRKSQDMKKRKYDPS
Experimental: (§1) Proteins: The 6×His-tagged human RAD52 proteins (wild type and mutants) and untagged human RPA were expressed and purified as previously described in (Hengel S R, eLife. 2016; 5; Grimme J M, et al., Nucleic Acids Res. 2010; 38(9):2917-30; and Henricksen L A, et al., The Journal of biological chemistry. 1994; 269(15):11121-32). RPA and RAD52 protein concentrations were determined by measuring absorbance at 280 nm using extinction coefficients of 88,830 M^−1 cm^−1 and 40,470 M^−1 cm^−1, respectively.
(§2) FRET-based DNA binding and inhibition assays: FRET-based that monitor the RAD52-ssDNA, RPA-ssDNA and RAD52-RPA-ssDNA binding were carried out as previously described (Hengel S R, eLife. 2016; 5; Grimme J M, et al., Nucleic Acids Res. 2010; 38(9):2917-30; and Grimme J M, Spies M. FRET-based assays to monitor DNA binding and annealing by Rad52 recombination mediator protein. Methods in molecular biology (Clifton, NJ). 2011; 745:463-83) using Cary Eclipse Spectrofluorimeter (Agilent) at 25° C., in 5 mm quartz cuvettes, and in buffer containing 30 mM Tris-Acetate (pH 7.5) and 1 mM DTT. Cy3 dye was excited at 530 nm and its emission was monitored at 565 nm. Emission of Cy5 acceptor fluorophore excited through the energy transfer from Cy3 donor is monitored at 660 nm simultaneously with emission of Cy3 dye. Both the excitation and the emission slits were set to 10 nm. All experiments were carried out using 1 nM (molecules) Cy3-dT30-Cy5 ssDNA. The optimal concentrations of the RAD52 (6 nM) and RPA (1 nM) proteins were selected by titrating the respective protein into 1 nM Cy3-dT30-Cy5 solution, and chosen based on the largest separation of the FRET values corresponding to the protein bound and free DNA.
(§3) The inhibition of the RAD52-ssDNA, RPA-ssDNA and RAD52-RPA-ssDNA complexes was evaluated by titrating each compound to the respective complex, measuring Cy3 and Cy5 fluorescence, and calculating FRET as previously described (Hengel, S. R., et al., eLife, 5).
(§4) Spectral properties of many compounds overlapped with the Cy3 and Cy5 fluorescence. To correct the calculated FRET values for the compound signal, the fluorogenic compounds were titrated into buffer and into solution of 1 nM Cy3-dT30-Cy5. For all tested compounds, the change in the signal in the Cy3 and Cy5 channels with and without Cy3/Cy5-labeled DNA present was the same. […] To account for the dye fluorescence, for each compound concentration, the apparent change in FRET of the ssDNA in the presence the compound was subtracted from the respective FRET signal of the RAD52-ssDNA, RPA-ssDNA or RAD52-ssDNA-RPA complex at the same inhibitor concentration. The IC50 values were calculated by fitting the corrected FRET data to the four-parameter dose response model using GraphPad Prism. All data are shown as average for at least three independent experiments ±standard deviation. The IC50 values are presented with their respective fitting error.

EUFA423F cells [2] = assay: CellTiter-Glo cell viability, BRCA2-mutated cells; assay type: cell-based, human; conditions: for toxicity towards EUFA423 cells: BRCA2-mutated cells, yes/no; for toxicity / selective toxicity towards BRCA2-mutated cells in cell viability assays: EUFA423F versus EUFA423F HA, CellTiter-Glo, 72 hours
Text: (§5) Cell lines: EUFA423F cells that are derived from a Fanconi Anemia patient with complementation group D1 and have biallelic mutations (7691 insAT and 9900 insA) in BRCA2 that result in two different truncated forms of BRCA2 (Howlett N G, et al., Science (New York, NY). 2002; 297(5581):606-9) and its counterpart complemented with expression vector for full-length BRCA2 (EUFA HA) were a generous gift from Dr. Simon Powell, Molecular Biology Program, Radiation Oncology, Sloan-Kettering Cancer Center, New York, NY).
(§6) Cell proliferation assay: Selective toxicity of the compounds towards human BRCA2 deficient cells was tested in EUFA423F and its complement EUFA423F HA using CellTiter-Glo® Luminescent Cell Viability Assay (Promega, Madison, WI). The cell lines were maintained in DMEM (Gibco/ThermoFisher Scientific, Waltham, MA) supplemented with 10% FBS and 10 mM HEPES (Gibco/ThermoFisher Scientific, Waltham, MA). EUFA423F HA cells were routinely supplemented with G418 in order to maintain the BRCA2 expression plasmid. Both cell lines were seeded in sterile tissue culture treated, white opaque 384-well plates (Perkin Elmer Inc., Waltham, MA) 3000 cells/well for EUFA423F HA and 2500 cells/well for EUFA423F) and allowed to adhere for 24 hours. Compounds dissolved in DMSO were added in the concentration range of 0-100 μM. Controls were treated with equivalent DMSO volumes. The cells were treated with compounds for 72 hours (to ensure that all cells experienced at least two S-phases). Post treatment, the cells were washed, treated with the CellTiter-Glo® reagent was added and the plate was analyzed as using a Gen5 (ver2.1) luminosity plate reader. The luminescence that reports on ATP generation by the surviving cells was normalized for the DMSO treated control as 100%. The normalized luminescence (average±standard deviation for at least three independent measurements obtained with different cell passages) was plotted in GraphPad Prism as a function of compound concentration. Clonogenic Survival: EUFA423F and EUFA423F HA cells were seeded in a 96 well plate. Compounds dissolved in DMSO were added to final concentrations of 0, 50, and 100 μM for the compound of Example 8 and the compound of Example 1, and 0, 5, and 10 μM for the compounds of Examples 2-7. The cells were treated with compounds for 72 hours. Post treatment, cell cultures were harvested by collecting all non-adherent cells in the well, trypsinization of all adherent cells, combining, pelleting and then resuspending in fresh media. Cultures treated with DMSO only were subsequently counted using a hemocytometer and plated at a density of 2000, 200 and 20 cells per well in 6-well culture plates, equal volumes of cultures were plated each inhibitor concentration. Each treatment and cell density conditions for both cell lines were plated in triplicate. After expanding the colonies for a period of 8 days, cultures were fixed with a solution of 70% ethanol and crystal violet for clonogenic survival analysis. Pictures of individual wells were taken using GelCount (Version 1.3.0.4) by Oxford Optronix (Abingdon UK). A colony had to contain at least 50 cells to be counted. The number of surviving colonies following treatment are presented as a percentage of number of colonies in the experiment where the cells were treated with DMSO only.

EUFA423F HA cells [3] = assay: CellTiter-Glo cell viability, BRCA2-complemented cells; assay type: cell-based, human; conditions: yes/no
Text: as §5, §6

RPA-ssDNA interaction = molecular target: T2, RPA-ssDNA interaction (Homo sapiens, UniProt P27694); assay: FRET-based inhibition of the RPA-ssDNA interaction; assay type: binding; conditions: 1 nM RPA, 1 nM Cy3-dT30-Cy5 ssDNA; value ± fitting error; N/A = no activity
T2 construct: made in house
Experimental: as §1, §2, §3, §4

RPA-ssDNA-RAD52 complex = molecular target: T3, RPA-ssDNA-RAD52 complex (Homo sapiens, UniProt P43351); assay: FRET-based inhibition of the RPA-ssDNA-RAD52 complex; assay type: binding; conditions: for IC50: value ± fitting error, N/A = no activity
T3 construct: 6xHis; made in house
T3 sequence (P43351 1-418): T1 sequence (P43351 1-418)
Experimental: as §1, §2, §3, §4

[4] = Solubility in cell culture medium; assay type: physicochemical; conditions: for solubility: plasma or biological fluid
EUFA423F cells [5] = conditions: Clark et al. 2012; cited from earlier work
EUFA423F HA cells [6] = conditions: Clark et al. 2012; Howlett et al. 2002; cited from earlier work
RAD52-ssDNA interaction [7] = molecular target: T1, RAD52-ssDNA interaction; conditions: Hengel et al. 2016; cited from earlier work
BRCA2-depleted cells = conditions: Hengel et al. 2016; cited from earlier work

T2 sequence (P27694 whole entry): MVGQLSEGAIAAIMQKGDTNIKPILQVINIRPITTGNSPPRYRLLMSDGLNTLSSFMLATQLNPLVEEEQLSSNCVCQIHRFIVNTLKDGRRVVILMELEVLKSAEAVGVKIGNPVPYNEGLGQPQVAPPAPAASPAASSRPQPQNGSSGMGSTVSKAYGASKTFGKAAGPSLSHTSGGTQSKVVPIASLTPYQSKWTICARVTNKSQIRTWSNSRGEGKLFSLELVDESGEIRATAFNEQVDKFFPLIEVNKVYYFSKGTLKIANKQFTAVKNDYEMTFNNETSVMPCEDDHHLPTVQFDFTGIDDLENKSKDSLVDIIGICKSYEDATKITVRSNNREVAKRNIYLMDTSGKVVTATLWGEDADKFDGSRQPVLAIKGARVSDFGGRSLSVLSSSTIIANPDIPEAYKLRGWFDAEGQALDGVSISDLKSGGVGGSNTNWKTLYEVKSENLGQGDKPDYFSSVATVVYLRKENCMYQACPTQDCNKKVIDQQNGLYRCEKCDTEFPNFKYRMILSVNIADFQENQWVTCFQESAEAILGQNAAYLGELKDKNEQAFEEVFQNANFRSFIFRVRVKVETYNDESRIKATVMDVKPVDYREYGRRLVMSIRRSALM
T2 sequence (P15927 whole entry partner): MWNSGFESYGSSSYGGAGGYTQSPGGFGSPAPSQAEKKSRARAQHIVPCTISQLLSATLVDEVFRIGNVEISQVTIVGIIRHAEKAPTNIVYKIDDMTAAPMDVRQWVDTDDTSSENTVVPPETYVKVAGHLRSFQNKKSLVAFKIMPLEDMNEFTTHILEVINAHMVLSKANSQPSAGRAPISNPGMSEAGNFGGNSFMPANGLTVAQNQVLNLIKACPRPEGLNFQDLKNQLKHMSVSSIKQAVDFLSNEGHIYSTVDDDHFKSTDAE
T2 sequence (P35244 whole entry partner): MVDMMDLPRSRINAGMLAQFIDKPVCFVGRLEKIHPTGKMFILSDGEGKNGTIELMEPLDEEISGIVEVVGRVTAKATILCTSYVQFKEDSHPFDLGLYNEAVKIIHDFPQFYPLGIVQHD

Compound | selectivity towards RAD52 over RPA (RAD52-ssDNA interaction [1]) | toxicity towards EUFA423 cells (EUFA423F cells [2]) | toxicity / selective toxicity towards BRCA2-mutated cells in cell viability assays (EUFA423F cells [2]) | toxicity towards EUFA423 HA (BRCA2-complemented cells) (EUFA423F HA cells [3]) | IC50 (RAD52-ssDNA interaction [1]) | IC50 (RPA-ssDNA interaction) | IC50 (RPA-ssDNA-RAD52 complex) | further results
O=C(Cn1cc([N+](=O)[O-])cc(Cl)c1=O)c1c[nH]c2ccc(F)cc12 [Example 5] | shows selectivity towards RAD52 over RPA | yes | selectively toxic to BRCA2-mutated cells | no | – | – | – | –
Cc1cc([N+](=O)[O-])cn(CC(=O)c2c[nH]c3ccc(Cl)cc23)c1=O [Example 3] | shows selectivity towards RAD52 over RPA | yes | selectively toxic to BRCA2-mutated cells | no | 7.97 ± 0.84 µM | 15.9 ± 1.4 µM | 7 ± 0.29 µM | solubility [4]: > 10 µM
Cc1ccn(CC(=O)c2c[nH]c3ccc(F)cc23)c(=O)c1[N+](=O)[O-] [Example 4] | shows selectivity towards RAD52 over RPA | yes | selectively toxic to BRCA2-mutated cells | no | – | – | – | solubility [4]: > 10 µM
C[C@]1(c2nc3c(C(N)=O)cccc3[nH]2)CCCN1 [veliparib] | – | – | – | – | – | – | – | sensitivity of EUFA423F cells to the agent (EUFA423F cells [5]): sensitive; sensitivity of the BRCA2-complemented (HA) cell line to the agent (EUFA423F HA cells [6]): resistant
Cc1c([N+](=O)[O-])ccn(CC(=O)c2c[nH]c3ccc(Br)cc23)c1=O [Example 6] | shows selectivity towards RAD52 over RPA | no | failed to inhibit both BRCA2-mutated and BRCA2-complemented cells | no | 2.02 ± 0.12 µM | 1.12 ± 0.13 µM | 0.76 ± 0.05 µM | solubility / aggregation in cell culture medium [4]: poorly soluble in cell culture medium
O=C(Cn1cc([N+](=O)[O-])cc(F)c1=O)c1c[nH]c2ccc(F)cc12 [Example 2] | shows selectivity towards RAD52 over RPA | yes | – | no | – | – | – | effect on the RPA-ssDNA-RAD52 complex (RPA-ssDNA-RAD52 complex; FRET titration): unable to dislodge RAD52; toxicity / selective toxicity towards BRCA2-mutated cells in cell viability assays (EUFA423F cells [2]; listed as Z58-54): selectively toxic to BRCA2-mutated cells; toxicity / selective toxicity towards BRCA2-mutated cells in cell viability assays (EUFA423F cells [2]; listed as Z5862216254): effective and specific in cell viability assays
O=C(Cn1cc([N+](=O)[O-])cc(Br)c1=O)c1c[nH]c2ccc(Cl)cc12 [Example 7] | shows selectivity towards RAD52 over RPA | yes | selectively toxic to BRCA2-mutated cells | no | 2.84 ± 0.32 µM | 28.9 ± 4 µM | 4.55 ± 0.16 µM | –
CO[C@@]12[C@H](COC(N)=O)C3=C(C(=O)C(C)=C(N)C3=O)N1C[C@@H]1N[C@@H]12 [mitomycin C] | – | – | – | – | – | – | – | sensitivity of the BRCA2-complemented (HA) cell line to the agent (EUFA423F HA cells [6]): resistant
Oc1cc(O)c2c(c1)O[C@H](c1cc(O)c(O)c(O)c1)[C@H](O)C2 [EGC, epigallochatechin] | – | – | – | – | – | – | – | competition with ssDNA binding to RAD52 (RAD52-ssDNA interaction [7]): competed with ssDNA binding to RAD52; efficacy in BRCA2-depleted cells (BRCA2-depleted cells): effective
